These results are taken from PubChem BioAssay (NCI).

Common to all, as to assay: growth of human tumour cells (NCI), 48 h
The test system of experiment [1] is 786-0 renal.
Experiment [2] concerns NCI-H460 lung.
Experiment [3] has as its system NCI-H522 lung.
In experiment [4] the test system is OVCAR-3 ovarian.
Experiment [5] concerns OVCAR-8 ovarian.
Experiment [6] deals with SK-MEL-5 melanoma.
Experiment [7] deals with SW-620 colon.
The test system of experiment [8] is UO-31 renal.
The subject of experiment [9] is T-47D breast.
In experiment [10] the test system is HCC-2998 colon.

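Growth conditions: 96-well plates. Treatment: test compound, 48 hours, 5 concentrations. Analysis: linear interpolation between bracketing concentrations; unreached endpoints set to highest concentration. GI50 is the concentration that inhibits growth by half. TGI denotes the concentration required for complete inhibition of growth.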

With `Cc1cc(S(N)(=O)=O)c(S/C(=N\NS(=O)(=O)c2ccc(Cl)cc2)c2ccc(Cl)cc2)cc1Cl`, the GI50 in experiment [1], in [2], in experiment [3], in experiment [4], in experiment [5] and in experiment [6] was greater than 100 µM throughout. The GI50 in experiment [7] and in experiment [8] was greater than 100 µM in each case. The TGI in [1], in experiment [2], in experiment [3], in experiment [4], in [5] and in experiment [6] was greater than 100 µM throughout. Also, the TGI in experiment [7] and in experiment [8] was greater than 100 µM in each case.
Turning to `COc1ccc(Cc2ccccc2C(=O)O)c2ccccc12`, the TGI in [1] was greater than 100 µM; in experiment [2], 38.9 µM; in experiment [3] it was 55.4 µM; in experiment [4] it was 47.1 µM; in experiment [5] it was greater than 100 µM; in experiment [6], 32.9 µM. The TGI in [7], in [9] and in experiment [8] was greater than 100 µM in each case.
Regarding `CCC(=O)O[C@@H]1C2C(OC(C)=O)C34COC(C)([C@@H]3C3C(C[C@]3(C)OC(C)=O)[C@@H](OC(=O)c3ccccc3)C4=O)[C@H](OC(C)=O)[C@@]2(OC(C)=O)C[C@@H]1C` (some centres undefined), the TGI is 29.2 µM in experiment [1]; greater than 100 µM in [10]; greater than 100 µM in experiment [2]; greater than 100 µM in experiment [3]; 82.7 µM in experiment [4]; greater than 100 µM in experiment [5]. For the same compound, the values for the TGI in experiment [6], in experiment [7] and in experiment [8] were 51 µM, greater than 100 µM and greater than 100 µM, respectively.
As for `CCCCCCCCSC1=CC(=O)C(OC)=C(OC)C1=O`, the GI50 in experiment [1] was 7.86 µM; in [10], 11.3 µM; in experiment [2], 6.29 µM; in experiment [3], 0.326 µM; in experiment [4], 1.45 µM; in [5], 2.16 µM. Further, the GI50 in [6] is 1.6 µM; in experiment [7] it was 1.71 µM; in experiment [8], 1.77 µM. Besides, the TGI in experiment [1] was determined as 20.1 µM; in [10], 24.4 µM; in [2] it was 19.8 µM; in experiment [3], 1.49 µM; in [4], 2.85 µM; in [5], 5.16 µM. For the same compound, the TGI in [6] is 8.79 µM; in experiment [7], 3.37 µM; in [8] it was 3.31 µM.
Regarding `Cc1ccccc1NC(=O)c1[nH]c(=S)nc(N)c1-c1ccccc1C`, the TGI in experiment [1], in [10], in experiment [2], in experiment [3], in [4] and in experiment [5] was greater than 100 µM each time. Moreover, the TGI in experiment [6], in experiment [7] and in experiment [8] was greater than 100 µM each time.
Turning to `C/C=C/C1(NS(=O)(=O)c2ccc(C)cc2)CCC(C(C)(C)C)CC1` (centres undefined), the TGI in experiment [1] was 43.8 µM; in experiment [10], 36.1 µM; in experiment [2], 51.5 µM; in [3], 26 µM; in [4], 34.9 µM; in experiment [5] it was greater than 100 µM. In addition, the TGI was 31.8 µM in experiment [6], 67.3 µM in [7] and 62.3 µM in experiment [8].
On to `COC(=O)/C(C#N)=C1\N=NNN1CCCc1ccccc1`, for which the TGI is greater than 100 µM in [1]; greater than 100 µM in experiment [10]; greater than 100 µM in experiment [2]; 52.7 µM in [3]; greater than 100 µM in [4]; greater than 100 µM in experiment [5]. In addition, the TGI in experiment [6], in experiment [7] and in experiment [8] was greater than 100 µM in each case.
`COc1nc2c(nc(N)n2C2OC(CO)C(O)C(O)C2O)c(=O)n1C` (centres undefined): the TGI in experiment [1], in experiment [10], in experiment [2], in experiment [3], in [4] and in [5] was greater than 100 µM throughout. The TGI in [6], in experiment [7] and in experiment [8] was greater than 100 µM each time.
On to `Cc1cc2c(=O)cc(-c3ccc(Cl)cc3)oc2c(C(=O)O)c1C`, for which the TGI in [1], in [2], in experiment [3], in experiment [4], in experiment [5] and in experiment [6] was greater than 100 µM each time. The TGI in experiment [7] and in experiment [8] was greater than 100 µM in each case.
Turning to `Cc1cc(Cl)ccc1N1C(=O)C(=O)C(c2nc3ccccc3s2)C(=O)C1=O`, the TGI in experiment [1], in experiment [2], in experiment [3], in experiment [4], in experiment [5] and in [6] was greater than 100 µM in each case. Also, the TGI in experiment [7] and in experiment [8] was greater than 100 µM each time.
On to `COc1ccccc1NC(=O)C1=C(C)NC(C)=C(C(=O)Nc2ccccc2OC)C1c1ccc(C(C)C)cc1`, for which the TGI in experiment [1], in [10], in experiment [2], in [4], in experiment [5] and in [6] was greater than 100 µM each time. Further, the TGI in experiment [7] and in experiment [8] was greater than 100 µM throughout.
As for `O=C(/C=C/c1ccccc1F)C(c1ccccc1)c1ccccc1`, the TGI in experiment [1] came to 5.8 µM; in experiment [3], 8.29 µM; in experiment [4], 15.2 µM; in [7], 11.5 µM; in [8], 25.2 µM.
As to `C[Si](C)(C)/C(Br)=C\CCN1C(=O)CCC1O` (centres undefined), the TGI in [1], in experiment [2], in experiment [3], in experiment [4], in [5] and in experiment [7] was greater than 100 µM throughout. The compound also yielded a TGI in experiment [8] greater than 100 µM.
For the compound `CN(C)/[N+]([O-])=N/Oc1cc(Nc2ccc(C(=O)O)cc2)c([N+](=O)[O-])cc1[N+](=O)[O-]`, the GI50 in [1] is 22.2 µM; in experiment [2], 32.2 µM; in experiment [3], 28.5 µM; in experiment [5] it was 22.1 µM; in experiment [6], 20.2 µM; in experiment [7] it was 45.4 µM. Further, the GI50 in experiment [8] is 25.6 µM. The TGI in experiment [1] was 55.3 µM; in experiment [2], greater than 100 µM; in experiment [3], greater than 100 µM; in experiment [5], 52.1 µM; in experiment [6], 41.3 µM; in experiment [7], greater than 100 µM. The compound further had a TGI in experiment [8] of 67.3 µM.
Turning to `Cc1ccc(S(=O)(=O)N2CCCCC2CCO)cc1` (centres undefined), the TGI in [1], in experiment [10], in experiment [2], in experiment [3], in experiment [4] and in experiment [5] was greater than 100 µM throughout. Moreover, the TGI in experiment [6], in [7] and in experiment [8] was greater than 100 µM throughout.
Consider `O=C1C(c2ccccc2)=C(c2ccccc2)C(c2ccccc2)/C1=C1\C(=O)C(c2ccccc2)=C(c2ccccc2)C1c1ccccc1` (centres undefined), for which the TGI in experiment [1], in [10], in experiment [2], in experiment [3], in experiment [4] and in [5] was greater than 100 µM throughout. Moreover, the TGI in [6], in experiment [7] and in [8] was greater than 100 µM each time.
Turning to `CCOc1ccc(NC(=O)C2=C(C)NC(C)=C(C(=O)Nc3ccc(OCC)cc3)C2c2ccc([N+](=O)[O-])cc2)cc1`, the TGI is greater than 100 µM in experiment [1]; 52.7 µM in experiment [10]; greater than 100 µM in experiment [2]; greater than 100 µM in experiment [3]; greater than 100 µM in experiment [4]; greater than 100 µM in experiment [5]. For the same compound, the TGI in experiment [6] is 74.3 µM; in [7] it was greater than 100 µM; in experiment [8], greater than 100 µM.
As to `CCOC1NC(=O)Oc2ccccc21` (centres undefined), the TGI in [1], in [10], in experiment [2], in experiment [3], in experiment [4] and in [5] was greater than 100 µM each time. For the same compound, the TGI in [6], in [7] and in experiment [8] was greater than 100 µM each time.
Take `O=C1/C(=C/c2ccc(O)cc2)CCC1CNc1ccc(Cl)cc1` (centres undefined): the TGI in experiment [1] came to 4.58 µM; in [10] it was 14.8 µM; in experiment [2], 23 µM; in experiment [3], 2.49 µM; in experiment [4], 6.1 µM; in experiment [5], 7.1 µM. The figures for the TGI in experiment [6], in experiment [7] and in experiment [8] were 20.8 µM, 3.03 µM and 9.82 µM, respectively.
For `NS(=O)(=O)c1ccc(-n2nc(-c3ccc(Cl)cc3)cc2C2=CC(=O)C=CC2=O)cc1`, the GI50 in experiment [1] is 19.8 µM; in experiment [10] it was 18.3 µM; in [2] it was 24.3 µM; in experiment [3] it was 31 µM; in experiment [4], 22.7 µM; in [5] it was 24.2 µM. Further, the GI50 in experiment [6] is 18.2 µM; in [7], 19.8 µM; in [8] it was 41.7 µM. Further, the TGI came out at 36 µM in experiment [1]; 33 µM in [10]; 57.4 µM in experiment [2]; 87.2 µM in [3]; 42.9 µM in experiment [4]; 73.7 µM in [5]. Besides, the figures for the TGI in experiment [6], in [7] and in experiment [8] were 43.5 µM, 48.3 µM and greater than 100 µM, respectively.
On to `CC(=O)O[C@H]1CC[C@@]2(C)C(=CC[C@@H]3C2CC[C@]2(C)Nc4oncc4CC32)C1` (some centres undefined), for which the TGI in experiment [1] is greater than 100 µM; in experiment [10], greater than 100 µM; in experiment [2] it was 48.8 µM; in experiment [4], 30.7 µM; in [5], greater than 100 µM; in [6], 33.2 µM. Further, the TGI in experiment [7] is greater than 100 µM; in experiment [8], 70.7 µM.
Turning to `Cc1cc(Cl)ccc1NC(=O)C1C(=O)N(c2ccc(Cl)cc2C)C(=O)/C1=N\N` (centres undefined), the TGI in experiment [1] was greater than 100 µM; in experiment [10] it was 67.3 µM; in [2], greater than 100 µM; in experiment [3], greater than 100 µM; in experiment [4], greater than 100 µM; in experiment [5], greater than 100 µM. The TGI in experiment [6], in experiment [7] and in [8] was greater than 100 µM in each case.
Turning to `Cc1cccc(C)c1NC(=O)C(=O)C1C(=O)N(c2ccccc2)N=C1N` (centres undefined), the TGI in [1], in experiment [10], in experiment [2], in [3], in experiment [4] and in experiment [5] was greater than 100 µM in each case. Further, the TGI in [6], in [7] and in experiment [8] was greater than 100 µM in each case.
On to `N#CC(C#N)=C1NC(=O)C(c2ccccc2)C(=O)N1` (centres undefined), for which the TGI in [1], in experiment [10], in experiment [2], in experiment [3], in experiment [4] and in experiment [5] was greater than 100 µM each time. The TGI in experiment [6], in [7] and in experiment [8] was greater than 100 µM throughout.
On to `Cc1ccc(/C=C2\CCOC2=O)cc1`, for which the GI50 in experiment [1], in experiment [2], in experiment [4], in experiment [5], in [6] and in experiment [7] was greater than 100 µM each time. Further, the GI50 in [9] is greater than 100 µM; in experiment [8], 41.8 µM. Moreover, the TGI in experiment [1], in experiment [2], in experiment [4], in [5], in experiment [6] and in experiment [7] was greater than 100 µM throughout. Also, the TGI in experiment [9] and in experiment [8] was greater than 100 µM throughout.
As for `CCOC(=O)C(=Cc1ccccc1Br)C(=O)OCC`, the TGI in [1] was greater than 100 µM; in [10], 6.54 µM; in experiment [2], greater than 100 µM; in experiment [3], 4.3 µM; in experiment [4], 4.7 µM; in experiment [5] it was 5.6 µM. The compound also displayed a TGI in [6] of 3.85 µM.
